The values that follow come from patent EP0665239A1, “Peptide derivatives of bactenecin endowed with antibacterial activity” (CONSIGLIO NAZIONALE DELLE RICERCHE, priority 1994, dated 1995).

Common to all, as to assay type: cell-based
Experiment [1] concerns Escherichia coli ATCC 25922. On the procedure:
(§1) The antibacterial activity of the peptides of this invention was evaluated by determining the minimal inhibitory concentration (MIC) of bacterial growth.
(§2) Each peptide was incubated in microtitration plates, at concentrations that decreased form 320 to 0.1 micrograms/ml, in which the wells contained a final volume of 0.1 ml of Mueller-Hinton broth with 3-5x10⁴ bacteria at the semi-logarithmic growth phase.
(§3) In each experiment, the MIC of Bac5 and Bac7 were also measured, for the purpose of comparison.
(§4) In these assays, the following bacterial strains were used: Escherichia coli ATCC 25922, Salmonella typhimurium ATCC 14028, Klebsiella pneumoniae ATCC 13883 and Enterobacter cloacae ATCC 13047.

The test system of experiment [2] is Enterobacter cloacae ATCC 13047. On the procedure: as §1, §2, §3, §4
The subject of experiment [3] is Salmonella typhimurium ATCC 14028. On the procedure:
as §1, §2, §3, §4

For experiment [4], the system named is Klebsiella pneumoniae ATCC 13883. As to the method:
as §1, §2, §3, §4

Setting [5] is: Salmonella typhimurium ATCC 14028, Mueller-Hinton broth, 3-5x10⁴ bacteria, 16 hours at 37° C.
Setting [6] is: Klebsiella pneumoniae ATCC 13883, Mueller-Hinton broth, 3-5x10⁴ bacteria, 16 hours at 37° C.
Setting [7] is: Escherichia coli ATCC 25922, Mueller-Hinton broth, 3-5x10⁴ bacteria, 16 hours at 37° C.
Where [8] appears, read: Enterobacter cloacae ATCC 13047, Mueller-Hinton broth, 3-5x10⁴ bacteria, 16 hours at 37° C.

Like-named read-outs stand apart in the source and are kept apart here. No end group written: not given here.

On to RFRPPIRRPPIRPPFYPPFRPPIRP [Peptide C], for which the MIC in experiment [1] (ATCC 25922) was 0.8 to 1.6 µM; in experiment [1] (ATCC 25922, 16 h), 2.5 to 5 mg/L; in experiment [2] (ATCC 13047) it was 0.8 to 1.6 µM; in experiment [2] (ATCC 13047, 16 h), 2.5 to 5 mg/L; in experiment [3] (ATCC 14028), 0.8 µM; in experiment [3] (setting [5]), 2.5 mg/L. Moreover, the minimum inhibitory concentration (MIC) in experiment [4] (ATCC 13883) is 0.8 µM; in experiment [4] (setting [6]) it was 2.5 mg/L.

As for “RRIRPRPPRLPRPRPRPL [Peptide D, Arg-Arg-Ile-Arg-Pro-Arg-Pro-Pro-Arg-Leu-Pro-Arg-Pro-Arg-Pro-Arg-Pro-Leu]”, the MIC was 1.0 µM in experiment [1] (ATCC 25922); 2.5 mg/L in experiment [1] (setting [7]); 0.5 to 1.0 µM in experiment [2] (ATCC 13047); 1.2 to 2.5 mg/L in experiment [2] (ATCC 13047, 16 h); 0.5 µM in experiment [3] (ATCC 14028); 1.2 mg/L in experiment [3] (setting [5]). In addition, the MIC in experiment [4] (ATCC 13883) lay within 0.2 to 0.5 µM; in experiment [4] (ATCC 13883, 16 h) it was 0.6 to 1.2 mg/L.

Take RRIRPRPPRLPRPRPRPLPFPRP [Peptide B]: the MIC in experiment [1] (Escherichia coli ATCC 25922, MICs of Table 1 expressed in molar terms) lay in the range of 0.4 to 0.8 µM; in experiment [1] (setting [7]), 1.2 to 2.5 mg/L; in experiment [2] (Enterobacter cloacae ATCC 13047, MICs of Table 1 expressed in molar terms), 0.2 to 0.4 µM; in experiment [2] (setting [8]), 0.6 to 1.2 mg/L; in experiment [3] (Salmonella typhimurium ATCC 14028, MICs of Table 1 expressed in molar terms) it was 0.2 to 0.4 µM; in experiment [3] (setting [5]), 0.6 to 1.2 mg/L. For the same sequence, the MIC in experiment [4] (Klebsiella pneumoniae ATCC 13883, MICs of Table 1 expressed in molar terms) was 0.2 to 0.4 µM; in experiment [4] (setting [6]), 0.6 to 1.2 mg/L.

As to “RRIRPRPPRLPRPRPRPLPFPRPGPRPIPRPLPFP [Peptide A]”, the MIC is 0.3 µM in experiment [1] (ATCC 25922); 1.2 mg/L in experiment [1] (setting [7]); 0.15 µM in experiment [2] (ATCC 13047); 0.6 mg/L in experiment [2] (setting [8]); 0.15 to 0.3 µM in experiment [3] (ATCC 14028); 0.6 to 1.2 mg/L in experiment [3] (ATCC 14028, 16 h). In addition, the MIC in experiment [4] (ATCC 13883) was 0.15 to 0.3 µM; in experiment [4] (ATCC 13883, 16 h) it was 0.6 to 1.2 mg/L.
